Test: refractive index (Na D-line) (dimensionless); xn = mol fraction of the nth substance listed
Settings: 103 kPa, Liquid, Standard Abbe refractometry

C=C[Si](C)(OCC)OCC [methylvinyldiethoxysilane] + CO[Si](C)(OC)c1ccccc1
refractive index
Settings | 298.15 K | 303.15 K | 308.15 K | 313.15 K | 318.15 K
x2 = 0 | 1.39751 | 1.39501 | 1.39249 | 1.38997 | 1.38742
x2 = 0.05 | 1.40161 | 1.39911 | 1.3966 | 1.39407 | 1.39153
x2 = 0.1001 | 1.40569 | 1.40322 | 1.40071 | 1.39819 | 1.39567
x2 = 0.1499 | 1.40975 | 1.40729 | 1.40481 | 1.4023 | 1.39979
x2 = 0.2001 | 1.41382 | 1.41135 | 1.40888 | 1.40639 | 1.40391
x2 = 0.2501 | 1.41792 | 1.41547 | 1.413 | 1.41052 | 1.40804
x2 = 0.3 | 1.42192 | 1.41948 | 1.41702 | 1.41456 | 1.41207
x2 = 0.3499 | 1.42595 | 1.42352 | 1.42108 | 1.41864 | 1.41615
x2 = 0.4 | 1.42999 | 1.42755 | 1.42511 | 1.42265 | 1.4202
x2 = 0.4501 | 1.43404 | 1.43161 | 1.42919 | 1.42673 | 1.4243
x2 = 0.5 | 1.43801 | 1.43558 | 1.43316 | 1.43072 | 1.42827
x2 = 0.5499 | 1.44203 | 1.43961 | 1.43721 | 1.43477 | 1.43237
x2 = 0.6 | 1.44606 | 1.44365 | 1.44126 | 1.43884 | 1.43645
x2 = 0.65 | 1.44994 | 1.44754 | 1.44513 | 1.44272 | 1.4403
x2 = 0.6999 | 1.45398 | 1.45159 | 1.44922 | 1.44683 | 1.44442
x2 = 0.75 | 1.45797 | 1.45558 | 1.45323 | 1.45086 | 1.44847
x2 = 0.7999 | 1.46196 | 1.45958 | 1.45722 | 1.45484 | 1.45248
x2 = 0.85 | 1.46589 | 1.46352 | 1.46116 | 1.45878 | 1.45641
x2 = 0.8998 | 1.46999 | 1.46763 | 1.46528 | 1.4629 | 1.46054
x2 = 0.9499 | 1.47377 | 1.47142 | 1.46907 | 1.46672 | 1.46435

CCO[Si](C)(C)OCC [dimethyldiethoxysilane] + CO[Si](C)(OC)c1ccccc1
refractive index
Settings | 298.15 K | 303.15 K | 308.15 K | 313.15 K | 318.15 K
x2 = 0 | 1.38045 | 1.37791 | 1.37532 | 1.37275 | 1.37015
x2 = 0.05 | 1.38569 | 1.38315 | 1.38057 | 1.37799 | 1.37541
x2 = 0.1001 | 1.39089 | 1.38836 | 1.38582 | 1.38325 | 1.38071
x2 = 0.1499 | 1.39601 | 1.39351 | 1.39097 | 1.38844 | 1.38592
x2 = 0.2002 | 1.40114 | 1.39865 | 1.39614 | 1.39362 | 1.39108
x2 = 0.2501 | 1.40622 | 1.40372 | 1.40124 | 1.39874 | 1.39625
x2 = 0.3001 | 1.41123 | 1.40874 | 1.40626 | 1.40376 | 1.40129
x2 = 0.3499 | 1.41623 | 1.41376 | 1.41131 | 1.40883 | 1.4064
x2 = 0.4 | 1.42117 | 1.41873 | 1.41626 | 1.41378 | 1.41133
x2 = 0.4499 | 1.42609 | 1.42366 | 1.42126 | 1.41881 | 1.41639
x2 = 0.5 | 1.43096 | 1.42854 | 1.42613 | 1.42369 | 1.42133
x2 = 0.55 | 1.43582 | 1.4334 | 1.43098 | 1.42856 | 1.42618
x2 = 0.5999 | 1.44058 | 1.43819 | 1.43579 | 1.43336 | 1.43098
x2 = 0.65 | 1.44535 | 1.44296 | 1.44058 | 1.43819 | 1.43582
x2 = 0.6999 | 1.45008 | 1.4477 | 1.44531 | 1.4429 | 1.44055
x2 = 0.75 | 1.45489 | 1.45239 | 1.45002 | 1.44764 | 1.44527
x2 = 0.8 | 1.4594 | 1.45703 | 1.45464 | 1.45227 | 1.44991
x2 = 0.8498 | 1.464 | 1.46165 | 1.45929 | 1.45692 | 1.45455
x2 = 0.9 | 1.46859 | 1.46623 | 1.46388 | 1.46153 | 1.45918
x2 = 0.95 | 1.47312 | 1.47078 | 1.46843 | 1.46607 | 1.46372

— the NIST ThermoML archive (doi:10.1016/j.jct.2016.10.033)
